Results as given in patent US8207321B2, “Method of obtaining idolocarbazoles using biosynthetic rebeccamycin genes” (Universidad De Oviedo, priority 2001, dated 2012).

Key:
several tumor cell lines = conditions: cited from earlier work
S. albus J1074/pKC505 = assay: Paper disc growth inhibition by exogenously added rebeccamycin, control strain; type: cell-based, Streptomyces albus; conditions: 100 μg rebeccamycin on paper disc, Bennett's agar, 28° C. for 4 days
Method: (§1) Therefore, cosmids 14E8 and 17A12, which conferred the ability to produce rebeccamycin, should also confer resistance to rebeccamycin. In order to confirm this point, we studied the effect of exogenously added rebeccamycin on the growth of S. albus J1074/14E8 and control strain S. albus J1074/pKC505. For this purpose, spores of each strain were used to inoculate plates of Bennett's agar (Kieser et al. Practical Streptomyces genetics, The John Innes Foundation, Norwich, UK, 2000) containing 25 μg/ml apramycin. Different amounts of rebeccamycin (dissolved in acetone) were added to paper discs placed on this pre-seeded medium. The plates were left at 4° C. for an hour to allow diffusion of the rebeccamycin solution, and then they were incubated at 28° C. for 4 days.

S. albus J1074/14E8 = assay: Paper disc growth inhibition by exogenously added rebeccamycin, strain with cosmid 14E8; type: cell-based, Streptomyces albus; conditions: Bennett's agar, 28° C. for 4 days
Method: as §1

Micrococcus luteus = conditions: cited from earlier work
Staphylococcus aureus = conditions: cited from earlier work
Streptococcus faecalis = conditions: cited from earlier work
S. albus J1074 = assay: Growth inhibition of Streptomyces spp.; type: cell-based, Streptomyces albus
[1] = tested on: several tumors implanted in mice; conditions: cited from earlier work

For `CO[C@H]1[C@H](O)[C@@H](O)[C@H](n2c3c(Cl)cccc3c3c4c(c5c6cccc(Cl)c6[nH]c5c32)C(=O)NC4=O)O[C@@H]1CO` [Rebeccamycin], the “antitumor activity in vitro” value (several tumor cell lines) is given as “antitumor activity”, the “growth of S. albus J1074/pKC505” value (S. albus J1074/pKC505) is given as “totally inhibited” and the “growth of S. albus J1074/14E8” value (S. albus J1074/14E8; 100 μg rebeccamycin on paper disc) is given as “fully resistant”. For the same compound, the “growth of S. albus J1074/14E8” value (S. albus J1074/14E8; 200 μg rebeccamycin on paper disc) was “fully resistant”, the antibacterial activity (Micrococcus luteus) was “antibacterial activity” and the antibacterial activity (Staphylococcus aureus) was “antibacterial activity”. The antibacterial activity (Streptococcus faecalis) was “antibacterial activity”, the “inhibition of growth of Streptomyces spp. including S. albus J1074” value (S. albus J1074) was “weak inhibition of growth” and the “antitumor activity in vivo” value [1] was “antitumor activity”.
